Measurements: patent US20260184710A1, “CASITAS B-LINEAGE LYMPHOMA PROTOONCOGENE B (CBL-B) DEGRADING COMPOUNDS AND ASSOCIATED METHODS OF USE” (Arvinas Operations, Inc., priority 2022, published 2026)

target: T1, Cbl-b (Homo sapiens, UniProt Q13191); test: Cbl-b Degradation Method B (Nano-Glo HiBiT lytic detection); assay type: cell-based; details: Cbl-b-HiBit KI Jurkat Cells, incubated at least 6-24 hours; half maximal degradation; read-out: Cbl-b Degredation Method B IC50
T1 construct: Cbl-b-HiBit KI Jurkat Cells were purchased from Promega; host or cells: Cbl-b-HiBiT knock-in Jurkat cells
T1 sequence (Q13191 whole entry): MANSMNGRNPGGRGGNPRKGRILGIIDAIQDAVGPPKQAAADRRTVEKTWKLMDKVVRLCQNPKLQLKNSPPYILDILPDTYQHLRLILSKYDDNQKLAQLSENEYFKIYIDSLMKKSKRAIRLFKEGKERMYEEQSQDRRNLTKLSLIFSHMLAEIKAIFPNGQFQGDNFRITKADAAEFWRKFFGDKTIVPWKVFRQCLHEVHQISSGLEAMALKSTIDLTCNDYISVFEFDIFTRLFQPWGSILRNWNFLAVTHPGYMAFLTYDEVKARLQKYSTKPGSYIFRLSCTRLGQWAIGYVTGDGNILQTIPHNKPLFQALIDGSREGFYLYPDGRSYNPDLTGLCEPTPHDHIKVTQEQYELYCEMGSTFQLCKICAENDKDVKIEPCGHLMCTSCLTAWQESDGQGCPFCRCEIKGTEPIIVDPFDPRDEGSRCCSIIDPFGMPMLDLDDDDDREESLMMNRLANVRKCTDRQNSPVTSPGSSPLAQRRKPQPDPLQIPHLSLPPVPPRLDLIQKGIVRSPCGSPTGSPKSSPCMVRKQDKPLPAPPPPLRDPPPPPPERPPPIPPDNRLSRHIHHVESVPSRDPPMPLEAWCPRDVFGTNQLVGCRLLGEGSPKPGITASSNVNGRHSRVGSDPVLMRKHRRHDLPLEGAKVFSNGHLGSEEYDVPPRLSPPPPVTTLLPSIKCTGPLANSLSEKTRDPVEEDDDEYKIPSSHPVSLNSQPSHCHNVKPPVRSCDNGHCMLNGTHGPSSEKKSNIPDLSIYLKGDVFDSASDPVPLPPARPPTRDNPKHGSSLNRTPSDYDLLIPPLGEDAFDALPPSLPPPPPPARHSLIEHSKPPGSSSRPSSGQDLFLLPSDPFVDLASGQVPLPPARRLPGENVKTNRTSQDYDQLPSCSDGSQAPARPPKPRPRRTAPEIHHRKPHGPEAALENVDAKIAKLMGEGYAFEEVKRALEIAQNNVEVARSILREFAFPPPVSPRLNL
Description: Cbl-b Degradation Method B [table] Cbl-b-HiBit KI Jurkat Cells were purchased from Promega, and cell media consisted of RPMI 1640 with 10% […] and 1% pen/strep. The cells were counted, measured for viability, and 35 μL of the cell solution was seeded into 384 well flat bottom plates at a ratio of 20,000 cells per 35 μL. After which, the plates were incubated for ˜24 hours at 37° C. and 5% CO2. Compounds were ordered from Evotec in a 384 well plate at a 1 mM top concentration in DMSO and serially diluted 1:3 in DMSO for an 11-point dose response. Using the Bravo instrument, 1 uL of compound solution or DMSO was transferred to 125 uL of media. Each well was treated with 5 μL of compound plus media mixture or DMO and subsequently incubated for at least 6-24 hours at 37° C. and 5% CO2. After incubation, 30 μL of either NanoGlo media was added to each cell, and the plates read on the Synergy Neo2 machine. The concentration of an exemplary compound that leads to half maximal degradation (DC50) as well as the maximum degradation observed (Dmax, conventionally expressed as a percentage of control) is shown below in Table 2.

Row | Structure (SMILES) | DC50 [nM]
1 | Cn1cnnc1CC1(c2cccc(N3Cc4c(cc(CN5CCN(CC6CCN(c7ccc(F)c(C(=O)NC8CCC(=O)NC8=O)c7)CC6)CC5)cc4C(F)(F)F)C3=O)c2)COC1 (stereo not drawn) [Example 54, N-(2,6-dioxopiperidin-3-yl)-2-fluoro-5-{4-[(4-{[2-(3-{3-[(4-methyl-4H-1,2,4-triazol-3-yl)methyl]oxetan-3-yl}phenyl)-3-oxo-7-(trifluoromethyl)-2,3-dihydro-1H-isoindol-5-yl]methyl}piperazin-1-yl)methyl]piperidin-1-yl}benzamide] | > 500
2 | C[C@@H]1c2nc(N3CCC(O[C@H]4CC[C@H](CN5CCN(Cc6cc7c(c(C(F)(F)F)c6)CN(c6cccc(C8(Cc9nncn9C)CC(C#N)C8)c6)C7=O)C(C)(C)C5)CC4)CC3)ccc2C(=O)N1C1CCC(=O)NC1=O (single isomer, unassigned) [Example 309, (1r***,3r***)-3-(3-{6-[(2,2-dimethyl-4-{[(1r**,4r**)-4-({1-[(7R*)-6-(2,6-dioxopiperidin-3-yl)-7-methyl-5-oxo-5H,6H,7H-pyrrolo[3,4-b]pyridin-2-yl]piperidin-4-yl}oxy)cyclohexyl]methyl}piperazin-1-yl)methyl]-1-oxo-4-(trifluoromethyl)-2,3-dihydro-1H-isoindol-2-yl}phenyl)-3-[(4-methyl-4H-1,2,4-triazol-3-yl)methyl]cyclobutane-1-carbonitrile] | > 500
3 | Cn1cnnc1CC1(c2cccc(N3Cc4c(cc(CN5CCC(CN(C)[C@H]6C[C@H](Oc7ccc8c(c7)C(=O)N(C7CCC(=O)NC7=O)C8=O)C6)CC5)cc4C(F)(F)F)C3=O)c2)COC1 (stereo partly drawn) [Example 60, 2-(2,6-dioxopiperidin-3-yl)-5-[(1r,3r)-3-{methyl[(1-{[2-(3-{3-[(4-methyl-4H-1,2,4-triazol-3-yl)methyl]oxetan-3-yl}phenyl)-3-oxo-7-(trifluoromethyl)-2,3-dihydro-1H-isoindol-5-yl]methyl}piperidin-4-yl)methyl]amino}cyclobutoxy]-2,3-dihydro-1H-isoindole-1,3-dione] | > 500
4 | CC1c2nc(N3CCC(O[C@H]4CC[C@H](CN5CCN(Cc6cc(C(F)(F)F)c7cn(-c8cccc(C9(Cc%10nncn%10C)CC9)c8)nc7c6)C(C)(C)C5)CC4)CC3)ccc2C(=O)N1C1CCC(=O)NC1=O (relative stereo) [Example 253, rel-3-[7-methyl-5-oxo-2-(4-{[(1r,4r)-4-[(3,3-dimethyl-4-{[2-(3-{1-[(4-methyl-4H-1,2,4-triazol-3-yl)methyl]cyclopropyl}phenyl)-4-(trifluoromethyl)-2H-indazol-6-yl]methyl}piperazin-1-yl)methyl]cyclohexyl]oxy}piperidin-1-yl)-5H,6H,7H-pyrrolo[3,4-b]pyridin-6-yl]piperidine-2,6-dione] | > 500
5 | Cn1cnnc1CC1(c2cccc(-n3cc4c(C(F)(F)F)cc(CN5CCC[C@H](CN6CCC[C@@H](CN7CCN(c8ccc9c(c8F)CN(C8CCC(=O)NC8=O)C9=O)CC7)C6)C5)cc4n3)c2)COC1 (stereo partly drawn) [Example 257, 3-[4-fluoro-5-(4-{[(3R)-1-{[(3R)-1-{[2-(3-{3-[(4-methyl-4H-1,2,4-triazol-3-yl)methyl]oxetan-3-yl}phenyl)-4-(trifluoromethyl)-2H-indazol-6-yl]methyl}piperidin-3-yl]methyl}piperidin-3-yl]methyl}piperazin-1-yl)-1-oxo-2,3-dihydro-1H-isoindol-2-yl]piperidine-2,6-dione] | > 500
6 | CC1c2nc(N3CCC(O[C@H]4CC[C@H](CN5CCN(Cc6cc7c(c(C(F)(F)F)c6)CN(c6cccc(C8(Cc9nncn9C)CCOCC8)c6)C7=O)CC5)CC4)CC3)ccc2C(=O)N1C1CCC(=O)NC1=O (mixture of isomers) [Example 233, rac-3-[7-methyl-5-oxo-2-(4-{[(1r,4r)-4-[(4-{[2-(3-{4-[(4-methyl-4H-1,2,4-triazol-3-yl)methyl]oxan-4-yl}phenyl)-3-oxo-7-(trifluoromethyl)-2,3-dihydro-1H-isoindol-5-yl]methyl}piperazin-1-yl)methyl]cyclohexyl]oxy}piperidin-1-yl)-5H,6H,7H-pyrrolo[3,4-b]pyridin-6-yl]piperidine-2,6-dione] | > 500
7 | Cn1cnnc1CC1(c2cccc(N3Cc4c(cc(CN5CCN(c6cc(N7CCN(c8ccc9c(c8)C(=O)N(C8CCC(=O)NC8=O)C9=O)CC7)ncn6)CC5)cc4C(F)(F)F)C3=O)c2)COC1 (stereo not drawn) [Example 62, 2-(2,6-dioxopiperidin-3-yl)-5-{4-[6-(4-{[2-(3-{3-[(4-methyl-4H-1,2,4-triazol-3-yl)methyl]oxetan-3-yl}phenyl)-3-oxo-7-(trifluoromethyl)-2,3-dihydro-1H-isoindol-5-yl]methyl}piperazin-1-yl)pyrimidin-4-yl]piperazin-1-yl}-2,3-dihydro-1H-isoindole-1,3-dione] | > 500
8 | CC(C)n1c(=O)n(C2CCC(=O)NC2=O)c2ccc(N3CCC(CN4CCN(C[C@H]5CCCN(Cc6cc7c(c(C(F)(F)F)c6)CN(c6cccc(C8(Cc9nncn9C)CC(C#N)C8)c6)C7=O)C5)C(C)(C)C4)CC3)cc21 (stereo partly drawn) [Example 273, (1r*,3r*)-3-[3-(6-{[(3S)-3-{[4-({1-[1-(2,6-dioxopiperidin-3-yl)-2-oxo-3-(propan-2-yl)-2,3-dihydro-1H-1,3-benzodiazol-5-yl]piperidin-4-yl}methyl)-2,2-dimethylpiperazin-1-yl]methyl}piperidin-1-yl]methyl}-1-oxo-4-(trifluoromethyl)-2,3-dihydro-1H-isoindol-2-yl)phenyl]-3-[(4-methyl-4H-1,2,4-triazol-3-yl)methyl]cyclobutane-1-carbonitrile] | < 5
9 | Cn1cnnc1CC1(c2cccc(N3Cc4c(cc(CN5CCN([C@H]6CC[C@H](Nc7ccc8c(c7)C(=O)N(C7CCC(=O)NC7=O)C8=O)CC6)CC5)cc4C(F)(F)F)C3=O)c2)COC1 (stereo partly drawn) [Example 44, 2-(2,6-dioxopiperidin-3-yl)-5-{[(1r,4r)-4-(4-{[2-(3-{3-[(4-methyl-4H-1,2,4-triazol-3-yl)methyl]oxetan-3-yl}phenyl)-3-oxo-7-(trifluoromethyl)-2,3-dihydro-1H-isoindol-5-yl]methyl}piperazin-1-yl)cyclohexyl]amino}-2,3-dihydro-1H-isoindole-1,3-dione] | > 500
10 | Cn1cnnc1CC1(c2cccc(N3Cc4c(cc(CN5CCCC(OC6CCN(c7ccc8c(c7F)CN(C7CCC(=O)NC7=O)C8=O)CC6)C5)cc4C(F)(F)F)C3=O)c2)COC1 (stereo not drawn) [Example 156, 3-(4-fluoro-5-{4-[(1-{[2-(3-{3-[(4-methyl-4H-1,2,4-triazol-3-yl)methyl]oxetan-3-yl}phenyl)-3-oxo-7-(trifluoromethyl)-2,3-dihydro-1H-isoindol-5-yl]methyl}piperidin-3-yl)oxy]piperidin-1-yl}-1-oxo-2,3-dihydro-1H-isoindol-2-yl)piperidine-2,6-dione] | > 500
11 | CC(C)n1c(=O)n(C2CCC(=O)NC2=O)c2ccc(N3CCC(O[C@H]4CC[C@H](CN5CCN(Cc6cc7c(c(C(F)(F)F)c6)CN(c6cccc([C@]8(Cc9nncn9C)C[C@@H](C#N)C8)c6)C7=O)C(C)(C)C5)CC4)CC3)cc21 (stereo partly drawn) [Example 229, (1r,3r)-3-(3-{6-[(2,2-dimethyl-4-{[(1r,4r)-4-({1-[1-(2,6-dioxopiperidin-3-yl)-2-oxo-3-(propan-2-yl)-2,3-dihydro-1H-1,3-benzodiazol-5-yl]piperidin-4-yl}oxy)cyclohexyl]methyl}piperazin-1-yl)methyl]-1-oxo-4-(trifluoromethyl)-2,3-dihydro-1H-isoindol-2-yl}phenyl)-3-[(4-methyl-4H-1,2,4-triazol-3-yl)methyl]cyclobutane-1-carbonitrile] | < 5
12 | CC1c2nc(N3CCC(O[C@H]4CC[C@H](CN5CCN(Cc6cc(C(F)(F)F)c7cn(-c8cccc(C9(Cc%10nncn%10C)CCC9)c8)nc7c6)C(C)(C)C5)CC4)CC3)ccc2C(=O)N1C1CCC(=O)NC1=O (relative stereo) [Example 255, rel-3-[7-methyl-5-oxo-2-(4-{[(1r,4r)-4-[(3,3-dimethyl-4-{[2-(3-{1-[(4-methyl-4H-1,2,4-triazol-3-yl)methyl]cyclobutyl}phenyl)-4-(trifluoromethyl)-2H-indazol-6-yl]methyl}piperazin-1-yl)methyl]cyclohexyl]oxy}piperidin-1-yl)-5H,6H,7H-pyrrolo[3,4-b]pyridin-6-yl]piperidine-2,6-dione] | > 500
13 | CC(C)n1c(=O)n(C2CCC(=O)NC2=O)c2ccc(N3CCC(O[C@H]4CC[C@H](CN5CCN(Cc6cc7c(c(C(F)(F)F)c6)CN(c6cccc([C@]8(Cc9nncn9C)C[C@@H](C#N)C8)c6)C7=O)CC5)CC4)CC3)cc21 (stereo partly drawn) [Example 228, (1r,3r)-3-[(4-methyl-4H-1,2,4-triazol-3-yl)methyl]-3-(3-{1-oxo-6-[(4-{[(1r,4r)-4-({1-[1-(2,6-dioxopiperidin-3-yl)-2-oxo-3-(propan-2-yl)-2,3-dihydro-1H-1,3-benzodiazol-5-yl]piperidin-4-yl}oxy)cyclohexyl]methyl}piperazin-1-yl)methyl]-4-(trifluoromethyl)-2,3-dihydro-1H-isoindol-2-yl}phenyl)cyclobutane-1-carbonitrile] | < 5

same assay, conditions: Cbl-b-HiBit KI Jurkat Cells, incubated at least 6-24 hours; maximum degradation observed; read-out: Cbl-b Degredation Method B Dmax (%)

Row | Structure (SMILES) | Dmax [%]
14 | CC(C)n1c(=O)n(C2CCC(=O)NC2=O)c2ccc(N3CCC(O[C@H]4CC[C@H](CN5CCN(Cc6cc7c(c(C(F)(F)F)c6)CN(c6cccc([C@]8(Cc9nncn9C)C[C@@H](C#N)C8)c6)C7=O)C(C)(C)C5)CC4)CC3)cc21 (stereo partly drawn) [Example 229, (1r,3r)-3-(3-{6-[(2,2-dimethyl-4-{[(1r,4r)-4-({1-[1-(2,6-dioxopiperidin-3-yl)-2-oxo-3-(propan-2-yl)-2,3-dihydro-1H-1,3-benzodiazol-5-yl]piperidin-4-yl}oxy)cyclohexyl]methyl}piperazin-1-yl)methyl]-1-oxo-4-(trifluoromethyl)-2,3-dihydro-1H-isoindol-2-yl}phenyl)-3-[(4-methyl-4H-1,2,4-triazol-3-yl)methyl]cyclobutane-1-carbonitrile] | > 70
15 | CC(C)n1c(=O)n(C2CCC(=O)NC2=O)c2ccc(N3CCC(O[C@H]4CC[C@H](CN5CCN(Cc6cc7c(c(C(F)(F)F)c6)CN(c6cccc([C@]8(Cc9nncn9C)C[C@@H](C#N)C8)c6)C7=O)CC5)CC4)CC3)cc21 (stereo partly drawn) [Example 228, (1r,3r)-3-[(4-methyl-4H-1,2,4-triazol-3-yl)methyl]-3-(3-{1-oxo-6-[(4-{[(1r,4r)-4-({1-[1-(2,6-dioxopiperidin-3-yl)-2-oxo-3-(propan-2-yl)-2,3-dihydro-1H-1,3-benzodiazol-5-yl]piperidin-4-yl}oxy)cyclohexyl]methyl}piperazin-1-yl)methyl]-4-(trifluoromethyl)-2,3-dihydro-1H-isoindol-2-yl}phenyl)cyclobutane-1-carbonitrile] | > 70
